Test results from patent US11649246B2, “Salts of 4-amino-N-(l-((3-chloro-2-fluorophenyl)amino)-6-methylisoquinolin-5-yl)thieno[3,2-D]pyrimidine-7-carboxamide, and crystalline forms thereof” (Hanmi Pharm. Co., Ltd., priority 2017, dated 2023).
Structures can show the parent of a compound that is named as a salt.

What was measured:
Assay type in all cases: physicochemical
[1] = Salt screening: solubility by HPLC according to KP, USP and EP general chapters; conditions: water, Example 1B salts
Procedure: For each Example 1B salt, a mixture of 40 mL (20 v/w) of a suitable solvent and 2 g Formula (I) free base was formed with agitation at room temperature. The indicated acid (2.2 eq.) was added to the mixture and salt formation was monitored by visual check. The resulting solid bis-acid salt was stirred for 24 hr at room temperature then filtered, and washed with a suitable solvent.
The water content, solubility in water (mg/mL), appearance, salt yield (%) and PXRD results for each of the salts of Example 1B are summarized in Table 4 where “MsOH” refers to methane sulfonic acid; “BsOH” refers to benzenesulfonic acid; “OW” refers to off-white; “W” refers to white; “Cryst” refers to crystalline; and “Amorph” refers to amorphous. Solubility was measured by HPLC according to KP, USP and EP general chapters.

[2] = Hygroscopicity / water content at 25° C. and 75% RH; conditions: for Water Content (%): salt as prepared, before humidity exposure; for water content after hygroscopicity test: 25° C. and 75% RH
Procedure: Various salt forms of Formula (I) were prepared from Formula (I) free base and characterized by water solubility, PXRD, DSC, DVS and hygroscopicity.

pH of aqueous solution = conditions: room temperature, Form I
Procedure: Aqueous solution pH was measured by preparing 0.01%, 0.1% and 1% aqueous solutions of Formula (I) bis-hydrochloride and then shaking the solution for 30 minutes at room temperature followed by filtration. The pH of the filtered aqueous solution was measured with a S2K713 Pocket pH meter (ISFETCOM, Japan) according to the method of the Korean Pharmacopoeia.

[3] = Hygroscopicity by dynamic vapor sorption (DVS); conditions: 25°, Form I
Procedure: Dynamic vapor sorption (DVS) analysis was performed in a DVS advantage (Surface measurement system, United Kingdom) analyzer at 25° C. with a relative humidity of 0% to 90%. A sample in an amount of 10 mg was placed into a wire-mesh vapor sorption balance pan and then attached to a DVS advantage dynamic vapor sorption balance via surface measurement systems. […] Upon completion of the sorption cycle, the sample was dried using the same process while maintaining a relative humidity of 0%. The changes in the sample weight during the adsorption/desorption cycle (repeated 3 times) were recorded and the hygroscopicity of the sample was measured. DVS isotherm diagrams are presented in FIGS. 1, 3, 6, 10, 13, 16 and 19 where Target PP (%) refers to relative humidity, “SORP” refers to adsorption and “DESORP” refers to desorption.
Hygroscopicity was measured by DVS where the DVS curve for Formula (I) bis-hydrochloride was recorded in a DVS Advantage I analyzer (SMS, United Kingdom). The DVS was operated over 3 cycles for measurement of the surface adsorption effects of water, from 0% RH to 90% RH at 25°.

[4] = Dissociation constant (pKa), GLpKa method, Sirius T3; conditions: as an aqueous solution, calculated by extrapolation
Procedure: Based on these pKa values, Formula (I) is believed to be weakly basic compound.
The dissociation, pKa, was measured with a T3 (Sirius Analytical Instrument Ltd., UK). About 1 mg of Formula (I) bis-hydrochloride was transferred to a GLpKa beaker, dissolved with 43% to 53% MDM solution (ISA Water/MeOH/ACN/p-Dioxane=40/20/20/20, Sirius), adjusted to pH 1.8 with 0.5 N HCl, and titrated up to pH 12.2 with 0.5 N KOH. The pKa as an aqueous solution was calculated by extrapolation.

[5] = Partition / distribution coefficient octanol-water (Sirius T3); conditions: for distributed ratio in octanol phase to water phase: ratio to 1
Procedure: The partition coefficient, Log P, was measured with a T3 (Sirius Analytical Instrument Ltd., UK). About 1 mg of Formula (I) bis-hydrochloride was added to a 15 mL GLpKa beaker, dissolved with octanol/150 mM KCl, adjusted to pH 1.8 with 0.5 N HCl, and titrated up to pH 12.2 with 0.5 N KOH. The partition coefficient of the octanol-water system was determined by correcting the difference between titration curves of the blank from the titration curve, by inserting the value of the dissociation constant measured previously.

[6] = Solubility of bis-hydrochloride Form I by HPLC test and observation test
Procedure: Solubility was measured by HPLC according to KP, USP and EP general chapters. […] The results of solubility were same between HPLC test and observation test.

[7] = Water solubility of Formula (I) free base
Procedure: Formula (I) free base is poorly soluble in water with a solubility of less than 0.4 μg/mL. Salt forms of free base compounds may result in improved water solubility.

[8] = Stress stability test at 60° C.; conditions: for physicochemical stability (summary in words): up to 4 weeks
Procedure: In order to compare physicochemical stability among the crystalline form prepared in Example 3 (crystalline Formula (I) bis-hydrochloride Form I) and 16 (Formula (I) crystalline free base), and the amorphous form prepared in Comparative Example 1, a stress stability test was conducted by storing samples at 60° C., for different periods of time up to 4 weeks.

[9] = Water content of Form VI after humidity exposure (conversion to Form I)
Procedure: Crystalline Form VI was converted to Form I by two methods. In a first method, Form VI was exposed to a relative humidity of 60% at 25° C. In a second method, Form VI was exposed to a relative humidity of 20% at 21° C.

Cc1ccc2c(Nc3cccc(Cl)c3F)nccc2c1NC(=O)c1csc2c(N)ncnc12 [MsOH, 4-amino-N-(1-((3-chloro-2-fluorophenyl)amino)-6-methylisoquinolin-5-yl)thieno[3,2-d]pyrimidine-7-carboxamide]
H2O Solubility [1]: 50 µg/mL
Water Content (%) [2]: 2.1%

Cc1ccc2c(Nc3cccc(Cl)c3F)nccc2c1NC(=O)c1csc2c(N)ncnc12 [Formula (I) bis-hydrochloride salt, 4-amino-N-(1-((3-chloro-2-fluorophenyl)amino)-6-methylisoquinolin-5-yl)thieno[3,2-d]pyrimidine-7-carboxamide]
pH of aqueous solution (pH of aqueous solution; 0.1 mg/mL (0.01%) solution): 3.9
pH of aqueous solution (pH of aqueous solution; 1 mg/mL (0.1%) solution): 2.6
pH of aqueous solution (pH of aqueous solution; 10 mg/mL (1%) solution): 1.8
water absorption (DVS) ([3]; from 0% RH to 20% RH): about 9.4%
water absorption (DVS) ([3]; from 0% RH to 90% RH): about 14.1%
water desorption (DVS) ([3]; from 10% RH to ~0% RH): about 8.9%
water absorption (DVS), increased to ([3]; from 20% RH to 90% RH): 14.1%
water desorption (DVS) ([3]; from 90% RH to 10% RH): about 5.2%
H2O Solubility ([1]; listed as HCl): 120 µg/mL
pKa1 [4]: 3.86
pKa2 [4]: 4.73
pKa3 [4]: 10.30
pKa3 ([4]; listed as Formula (I) bis-hydrochloride): 10.30
distributed ratio in octanol phase to water phase ([5]; neutral state at pH 11 or higher): about 20,000
logP ([5]; octanol/water (octanol/150 mM KCl), neutral state at pH 11 or higher): 4.33
logD ([5]; octanol/water, pH 7.4): 5.24
distributed ratio in octanol phase to water phase ([5]; pH 7.4): about 200,000
water content after hygroscopicity test [2]: 11.7%
Water Content (%) [2]: 6.2%
Water Content (%) ([2]; listed as HCl): 6.2%
Solubility Observation ([6]; ACN): practically in soluble
Solubility Observation ([6]; DMSO): freely soluble
Solubility Observation ([6]; Dichloromethane): practically in soluble
Solubility Observation ([6]; Ethanol): very slightly soluble
Solubility Observation ([6]; Ethyl acetate): practically in soluble
Solubility Observation ([6]; Ethyl ether): practically in soluble
Solubility Observation ([6]; Methanol): sparingly soluble
Solubility Observation ([6]; Water): practically insoluble
Solubility Observation ([6]; buffer over pH 3.0): practically insoluble
Solubility Observation ([6]; n-Hexane): practically in soluble
Solubility Observation ([6]; pH 1.2 buffer): very slightly soluble
Solubility Observation ([6]; pH 2.0 buffer): very slightly soluble

Cc1ccc2c(Nc3cccc(Cl)c3F)nccc2c1NC(=O)c1csc2c(N)ncnc12 [Formula (I) free base, 4-amino-N-(1-((3-chloro-2-fluorophenyl)amino)-6-methylisoquinolin-5-yl)thieno[3,2-d]pyrimidine-7-carboxamide]
solubility [7]: < 0.4 µg/mL

Cc1ccc2c(Nc3cccc(Cl)c3F)nccc2c1NC(=O)c1csc2c(N)ncnc12 [BsOH, 4-amino-N-(1-((3-chloro-2-fluorophenyl)amino)-6-methylisoquinolin-5-yl)thieno[3,2-d]pyrimidine-7-carboxamide]
H2O Solubility [1]: 30 µg/mL
Water Content (%) [2]: 0.9%

Cc1ccc2c(Nc3cccc(Cl)c3F)nccc2c1NC(=O)c1csc2c(N)ncnc12 [HBr, 4-amino-N-(1-((3-chloro-2-fluorophenyl)amino)-6-methylisoquinolin-5-yl)thieno[3,2-d]pyrimidine-7-carboxamide]
H2O Solubility [1]: 50 µg/mL
Water Content (%) [2]: 2.9%

Cc1ccc2c(Nc3cccc(Cl)c3F)nccc2c1NC(=O)c1csc2c(N)ncnc12 [Example 16, 4-amino-N-(1-((3-chloro-2-fluorophenyl)amino)-6-methylisoquinolin-5-yl)thieno[3,2-d]pyrimidine-7-carboxamide]
Purity(%) (A % by HPLC) ([8]; 2 weeks): 99.7%
Total impurities(%) (A % by HPLC) ([8]; 2 weeks): 0.29%
Purity(%) (A % by HPLC) ([8]; 7 days): 99.7%
Total impurities(%) (A % by HPLC) ([8]; 7 days): 0.29%
Purity(%) (A % by HPLC) ([8]; Initial): 99.7%
Total impurities(%) (A % by HPLC) ([8]; Initial): 0.29%
physicochemical stability (summary in words) ([8]; listed as crystalline form of the free base): remarkably superior stability over the amorphous form

Cc1ccc2c(Nc3cccc(Cl)c3F)nccc2c1NC(=O)c1csc2c(N)ncnc12 [Formula (I) bis-hydrogensulfate salt, 4-amino-N-(1-((3-chloro-2-fluorophenyl)amino)-6-methylisoquinolin-5-yl)thieno[3,2-d]pyrimidine-7-carboxamide]
H2O Solubility ([1]; listed as H2SO4): 160 µg/mL
water content after hygroscopicity test [2]: 17.1%
Water Content (%) [2]: 2.6%
Water Content (%) ([2]; listed as H2SO4): 2.6%

Cc1ccc2c(Nc3cccc(Cl)c3F)nccc2c1NC(=O)c1csc2c(N)ncnc12 [Form VI, 4-amino-N-(1-((3-chloro-2-fluorophenyl)amino)-6-methylisoquinolin-5-yl)thieno[3,2-d]pyrimidine-7-carboxamide]
water content ([9]; after exposure at 21° C. and 20% RH for 3 hours): 8.0%
water content ([9]; after exposure at 21° C. and 20% RH for 6 hours): 10.4%
water content ([9]; after exposure at 21° C. and 20% RH for 5 days): 10.1%
water content ([9]; after exposure at 25° C. and 60% RH): 11.3%

Cc1ccc2c(Nc3cccc(Cl)c3F)nccc2c1NC(=O)c1csc2c(N)ncnc12 [Comparative Example 1, 4-amino-N-(1-((3-chloro-2-fluorophenyl)amino)-6-methylisoquinolin-5-yl)thieno[3,2-d]pyrimidine-7-carboxamide]
Purity(%) (A % by HPLC) ([8]; 2 weeks): 99.5%
Total impurities(%) (A % by HPLC) ([8]; 2 weeks): 0.485%
Purity(%) (A % by HPLC) ([8]; 4 weeks): 99.3%
Total impurities(%) (A % by HPLC) ([8]; 4 weeks): 0.68%
Purity(%) (A % by HPLC) ([8]; 1 day): 99.7%
Total impurities(%) (A % by HPLC) ([8]; 1 day): 0.30%
Purity(%) (A % by HPLC) ([8]; 3 days): 99.7%
Total impurities(%) (A % by HPLC) ([8]; 3 days): 0.31%
Purity(%) (A % by HPLC) ([8]; 7 days): 99.6%
Total impurities(%) (A % by HPLC) ([8]; 7 days): 0.38%
Purity(%) (A % by HPLC) ([8]; Initial): 99.7%
Total impurities(%) (A % by HPLC) ([8]; Initial): 0.32%
physicochemical stability (summary in words) ([8]; listed as amorphous form): change of purity after 7 days
